Test results as given in the supplement of paper PMC11451515.

Tests used:
Details in all cases: 48 h
NOMO1 [1] = assay: cell viability relative to DMSO control; higher = less cytotoxic
Procedure, shortened: (§1)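 NOMO1, SEM and P12-Ichikawa leukemia cells spent at least four passages adapting to each medium before use. They were seeded at 500 cells/well (NOMO1, SEM) or 1000 cells/well (P12-Ichikawa) in 5 μl in 1536-well plates and pin-dosed with library compounds in DMSO at 11 threefold steps from 47 μM down to 0.79 nM. After 48 h at 37°C, CellTiter-Glo One luminescence was read. Viability is reported as a percentage of the DMSO wells on each plate, with cell-free wells as background.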

P12-Ichikawa [2] = assay: as above
Procedure, shortened: as §1

SEM cells [3] = assay: as above
Procedure, shortened: as §1

NOMO1 [4] = assay: AUC of viability dose-response curve (% viability x log10 dose units); higher = less sensitive
Procedure, shortened: (§2)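 Library compounds in DMSO were applied for 48 h at 37°C at 11 threefold doses (47 μM to 0.79 nM) to medium-adapted leukemia cells in 1536-well plates holding 500 or 1000 cells/well. Luminescence from CellTiter-Glo One was normalised plate by plate against DMSO and cell-free wells. Area under the curve came from trapezoidal integration of a log-logistic fit, after scaling curves that rose above full viability and discarding those that failed quality control. The fit had four parameters and used log10 doses.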

P12-Ichikawa [5] = assay: as above
Procedure, shortened: as §2

SEM cells [6] = assay: as above
Procedure, shortened: as §2

O=C(O)Cn1nnc(-c2cc(N3CCC(Oc4cc(F)ccc4Br)CC3)no2)n1
cell viability [%]
Details	NOMO1 [1]	P12-Ichikawa [2]	SEM cells [3]
HPLM + 10% dialyzed FBS, 0.000781 µM	96	97.6	73.8
HPLM + 10% dialyzed FBS, 0.00234 µM	97.7	114	82.5
HPLM + 10% dialyzed FBS, 0.00702 µM	97.2	107	92.6
HPLM + 10% dialyzed FBS, 0.0211 µM	111	114	75.8
HPLM + 10% dialyzed FBS, 0.0632 µM	108	116	95.6
HPLM + 10% dialyzed FBS, 0.19 µM	99.6	123	101
HPLM + 10% dialyzed FBS, 0.569 µM	106	105	104
HPLM + 10% dialyzed FBS, 1.71 µM	34.7	112	102
HPLM + 10% dialyzed FBS, 5.12 µM	29.9	113	86.3
HPLM + 10% dialyzed FBS, 15.4 µM	24.4	12	97.2
HPLM + 10% dialyzed FBS, 46.1 µM	24.6	11	62.2
RPMI 5 mM glucose + 10% FBS, 0.000781 µM	102	103	102
RPMI 5 mM glucose + 10% FBS, 0.00234 µM	105	112	75.3
RPMI 5 mM glucose + 10% FBS, 0.00702 µM	106	109	101
RPMI 5 mM glucose + 10% FBS, 0.0211 µM	109	118	94.2
RPMI 5 mM glucose + 10% FBS, 0.0632 µM	109	118	98
RPMI 5 mM glucose + 10% FBS, 0.19 µM	106	122	100
RPMI 5 mM glucose + 10% FBS, 0.569 µM	104	112	96.9
RPMI 5 mM glucose + 10% FBS, 1.71 µM	22.9	118	120
RPMI 5 mM glucose + 10% FBS, 5.12 µM	22.1	112	90.9
RPMI 5 mM glucose + 10% FBS, 15.4 µM	16	18	103
RPMI 5 mM glucose + 10% FBS, 46.1 µM	16.6	13.4	85.4
RPMI 5 mM glucose + 10% dialyzed FBS, 0.000781 µM	83.1	93.2	80.1
RPMI 5 mM glucose + 10% dialyzed FBS, 0.00234 µM	109	117	88.9
RPMI 5 mM glucose + 10% dialyzed FBS, 0.00702 µM	100	111	95.6
RPMI 5 mM glucose + 10% dialyzed FBS, 0.0211 µM	104	115	106
RPMI 5 mM glucose + 10% dialyzed FBS, 0.0632 µM	115	118	93.6
RPMI 5 mM glucose + 10% dialyzed FBS, 0.19 µM	113	116	102
RPMI 5 mM glucose + 10% dialyzed FBS, 0.569 µM	112	113	116
RPMI 5 mM glucose + 10% dialyzed FBS, 1.71 µM	45.2	116	106
RPMI 5 mM glucose + 10% dialyzed FBS, 5.12 µM	31.9	114	94
RPMI 5 mM glucose + 10% dialyzed FBS, 15.4 µM	25.4	45.6	102
RPMI 5 mM glucose + 10% dialyzed FBS, 46.1 µM	22.8	17.9	103

AUC of viability dose-response curve
Details	NOMO1 [4]	P12-Ichikawa [5]	SEM cells [6]
HPLM + 10% dialyzed FBS	357	413	422
RPMI 5 mM glucose + 10% FBS	340	415	464
RPMI 5 mM glucose + 10% dialyzed FBS	361	428	459

C[C@H]1COC2=C3N1\C=C(C(O)=O)/C(=O)C3=CC(=C2N4CCN(C)CC4)F
cell viability [%]
Details	NOMO1 [1]	P12-Ichikawa [2]	SEM cells [3]
HPLM + 10% dialyzed FBS, 0.000781 µM	124	117	102
HPLM + 10% dialyzed FBS, 0.00234 µM	123	116	117
HPLM + 10% dialyzed FBS, 0.00702 µM	128	121	117
HPLM + 10% dialyzed FBS, 0.0211 µM	114	116	108
HPLM + 10% dialyzed FBS, 0.0632 µM	122	109	106
HPLM + 10% dialyzed FBS, 0.19 µM	106	113	110
HPLM + 10% dialyzed FBS, 0.569 µM	113	97.2	92.9
HPLM + 10% dialyzed FBS, 1.71 µM	108	109	68.7
HPLM + 10% dialyzed FBS, 5.12 µM	94.8	92.7	68.2
HPLM + 10% dialyzed FBS, 15.4 µM	85.9	85.6	65.4
HPLM + 10% dialyzed FBS, 46.1 µM	61	82.9	52.7
RPMI 5 mM glucose + 10% FBS, 0.000781 µM	–	111	105
RPMI 5 mM glucose + 10% FBS, 0.00234 µM	–	113	115
RPMI 5 mM glucose + 10% FBS, 0.00702 µM	–	117	102
RPMI 5 mM glucose + 10% FBS, 0.0211 µM	–	120	115
RPMI 5 mM glucose + 10% FBS, 0.0632 µM	–	98.2	90.6
RPMI 5 mM glucose + 10% FBS, 0.19 µM	–	116	81.4
RPMI 5 mM glucose + 10% FBS, 0.569 µM	–	98.6	94.7
RPMI 5 mM glucose + 10% FBS, 1.71 µM	–	103	73.4
RPMI 5 mM glucose + 10% FBS, 5.12 µM	–	84.2	63.6
RPMI 5 mM glucose + 10% FBS, 15.4 µM	–	62.5	58.6
RPMI 5 mM glucose + 10% FBS, 46.1 µM	–	70.4	31.9
RPMI 5 mM glucose + 10% dialyzed FBS, 0.000781 µM	122	109	90
RPMI 5 mM glucose + 10% dialyzed FBS, 0.00234 µM	112	111	109
RPMI 5 mM glucose + 10% dialyzed FBS, 0.00702 µM	127	114	112
RPMI 5 mM glucose + 10% dialyzed FBS, 0.0211 µM	124	118	99.1
RPMI 5 mM glucose + 10% dialyzed FBS, 0.0632 µM	124	108	90.2
RPMI 5 mM glucose + 10% dialyzed FBS, 0.19 µM	115	112	96.4
RPMI 5 mM glucose + 10% dialyzed FBS, 0.569 µM	112	91.7	88.7
RPMI 5 mM glucose + 10% dialyzed FBS, 1.71 µM	112	94.7	64.1
RPMI 5 mM glucose + 10% dialyzed FBS, 5.12 µM	98.1	82.4	76.9
RPMI 5 mM glucose + 10% dialyzed FBS, 15.4 µM	98.7	74.2	70.4
RPMI 5 mM glucose + 10% dialyzed FBS, 46.1 µM	72.9	62.6	69.4

AUC of viability dose-response curve
Details	NOMO1 [4]	P12-Ichikawa [5]	SEM cells [6]
HPLM + 10% dialyzed FBS	426	427	398
RPMI 5 mM glucose + 10% FBS	454	429	373
RPMI 5 mM glucose + 10% dialyzed FBS	441	416	420

C=C1/C(=C\C=C2/CCC[C@]3(C)[C@@H]([C@H](C)CCCC(C)(C)O)CC[C@@H]23)C[C@@H](O)C[C@@H]1O
Details	cell viability [%]
P12-Ichikawa [2], HPLM + 10% dialyzed FBS, 0.000781 µM	122
P12-Ichikawa [2], HPLM + 10% dialyzed FBS, 0.00234 µM	126
P12-Ichikawa [2], HPLM + 10% dialyzed FBS, 0.00702 µM	118
P12-Ichikawa [2], HPLM + 10% dialyzed FBS, 0.0211 µM	131
P12-Ichikawa [2], HPLM + 10% dialyzed FBS, 0.0632 µM	124
P12-Ichikawa [2], HPLM + 10% dialyzed FBS, 0.19 µM	123
P12-Ichikawa [2], HPLM + 10% dialyzed FBS, 0.569 µM	120
P12-Ichikawa [2], HPLM + 10% dialyzed FBS, 1.71 µM	117
P12-Ichikawa [2], HPLM + 10% dialyzed FBS, 15.4 µM	118
P12-Ichikawa [2], HPLM + 10% dialyzed FBS, 46.1 µM	90.4
SEM cells [3], RPMI 5 mM glucose + 10% FBS, 0.000781 µM	105
SEM cells [3], RPMI 5 mM glucose + 10% FBS, 0.00234 µM	120
SEM cells [3], RPMI 5 mM glucose + 10% FBS, 0.00702 µM	117
SEM cells [3], RPMI 5 mM glucose + 10% FBS, 0.0211 µM	113
SEM cells [3], RPMI 5 mM glucose + 10% FBS, 0.0632 µM	123
SEM cells [3], RPMI 5 mM glucose + 10% FBS, 0.19 µM	110
SEM cells [3], RPMI 5 mM glucose + 10% FBS, 0.569 µM	126
SEM cells [3], RPMI 5 mM glucose + 10% FBS, 1.71 µM	113
SEM cells [3], RPMI 5 mM glucose + 10% FBS, 5.12 µM	92.9
SEM cells [3], RPMI 5 mM glucose + 10% FBS, 15.4 µM	98.7
SEM cells [3], RPMI 5 mM glucose + 10% FBS, 46.1 µM	57.2

AUC of viability dose-response curve
Details	NOMO1 [4]	P12-Ichikawa [5]	SEM cells [6]
HPLM + 10% dialyzed FBS	440	454	459
RPMI 5 mM glucose + 10% FBS	448	445	449
RPMI 5 mM glucose + 10% dialyzed FBS	448	458	450
